{"source": "patent US8192962B2", "about": "“Processes for detecting toxic substances” (Daikin Industries, Ltd., priority 2001, dated 2012)", "tested_on": "Mitochondria-located protein genes", "assay": "DNA chip mRNA expression in yeast, mitochondria-located protein genes (Table 2)", "type": "cell-based, Saccharomyces cerevisiae S288C", "details": "cells incubated two hours with the chemical substance", "in_short": "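Whole-genome yeast DNA chip hybridization (65° C., >12 h) of Cy-labeled cDNA from S288C cells exposed 2 h at 25° C. to a sub-lethal toxicant dose in YPD; value is intensity relative to chemical-free control.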", "data": [{"smiles": "CN(C)C(=S)SSC(=S)N(C)C", "note": "[(10), Tetramethylthiuram disulfide]", "values": [{"measurement": "The level of expressed mRNA in the presence of chemical substance/The level of expressed mRNA in the absence of chemical substance", "setting": "yeast gene YAL039C", "result": 2.2}, {"measurement": "The level of expressed mRNA in the presence of chemical substance/The level of expressed mRNA in the absence of chemical substance", "setting": "yeast gene YBL022C", "result": 1.2}, {"measurement": "The level of expressed mRNA in the presence of chemical substance/The level of expressed mRNA in the absence of chemical substance", "setting": "yeast gene YBL030C", "result": 0.9}, {"measurement": "The level of expressed mRNA in the presence of chemical substance/The level of expressed mRNA in the absence of chemical substance", "setting": "yeast gene YBL038W", "result": 1.5}, {"measurement": "The level of expressed mRNA in the presence of chemical substance/The level of expressed mRNA in the absence of chemical substance", "setting": "yeast gene YBL099W", "result": 0.7}, {"measurement": "The level of expressed mRNA in the presence of chemical substance/The level of expressed mRNA in the absence of chemical substance", "setting": "yeast gene YBR003W", "result": 1.3}, {"measurement": "The level of expressed mRNA in the presence of chemical substance/The level of expressed mRNA in the absence of chemical substance", "setting": "yeast gene YBR044C", "result": 1.2}, {"measurement": "The level of expressed mRNA in the presence of chemical substance/The level of expressed mRNA in the absence of chemical substance", "setting": "yeast gene YBR091C", "result": 1.6}, {"measurement": "The level of expressed mRNA in the presence of chemical substance/The level of expressed mRNA in the absence of chemical substance", "setting": "yeast gene YBR122C", "result": 1.4}, {"measurement": "The level of expressed mRNA in the presence of chemical substance/The level of expressed mRNA in the absence of chemical substance", "setting": "yeast gene YBR185C", "result": 1.6}, {"measurement": "The level of expressed mRNA in the presence of chemical substance/The level of expressed mRNA in the absence of chemical substance", "setting": "yeast gene YBR221C", "result": 1.3}, {"measurement": "The level of expressed mRNA in the presence of chemical substance/The level of expressed mRNA in the absence of chemical substance", "setting": "yeast gene YBR251W", "result": 1.1}, {"measurement": "The level of expressed mRNA in the presence of chemical substance/The level of expressed mRNA in the absence of chemical substance", "setting": "yeast gene YBR282W", "result": 0.9}, {"measurement": "The level of expressed mRNA in the presence of chemical substance/The level of expressed mRNA in the absence of chemical substance", "setting": "yeast gene YCL057W", "result": 2.1}, {"measurement": "The level of expressed mRNA in the presence of chemical substance/The level of expressed mRNA in the absence of chemical substance", "setting": "yeast gene YCR046C", "result": 1.4}, {"measurement": "The level of expressed mRNA in the presence of chemical substance/The level of expressed mRNA in the absence of chemical substance", "setting": "yeast gene YCR083W", "result": 1.8}, {"measurement": "The level of expressed mRNA in the presence of chemical substance/The level of expressed mRNA in the absence of chemical substance", "setting": "yeast gene YDL067C", "result": 0.9}, {"measurement": "The level of expressed mRNA in the presence of chemical substance/The level of expressed mRNA in the absence of chemical substance", "setting": "yeast gene YDL181W", "result": 0.8}, {"measurement": "The level of expressed mRNA in the presence of chemical substance/The level of expressed mRNA in the absence of chemical substance", "setting": "yeast gene YDL198C", "result": 2.7}, {"measurement": "The level of expressed mRNA in the presence of chemical substance/The level of expressed mRNA in the absence of chemical substance", "setting": "yeast gene YDR079W", "result": 0.8}, {"measurement": "The level of expressed mRNA in the presence of chemical substance/The level of expressed mRNA in the absence of chemical substance", "setting": "yeast gene YDR178W", "result": 0.8}, {"measurement": "The level of expressed mRNA in the presence of chemical substance/The level of expressed mRNA in the absence of chemical substance", "setting": "yeast gene YDR231C", "result": 1.4}, {"measurement": "The level of expressed mRNA in the presence of chemical substance/The level of expressed mRNA in the absence of chemical substance", "setting": "yeast gene YDR258C", "result": 13.3}, {"measurement": "The level of expressed mRNA in the presence of chemical substance/The level of expressed mRNA in the absence of chemical substance", "setting": "yeast gene YDR298C", "result": 1.6}, {"measurement": "The level of expressed mRNA in the presence of chemical substance/The level of expressed mRNA in the absence of chemical substance", "setting": "yeast gene YDR347W", "result": 1.6}, {"measurement": "The level of expressed mRNA in the presence of chemical substance/The level of expressed mRNA in the absence of chemical substance", "setting": "yeast gene YDR377W", "result": 0.9}, {"measurement": "The level of expressed mRNA in the presence of chemical substance/The level of expressed mRNA in the absence of chemical substance", "setting": "yeast gene YDR529C", "result": 0.6}, {"measurement": "The level of expressed mRNA in the presence of chemical substance/The level of expressed mRNA in the absence of chemical substance", "setting": "yeast gene YEL024W", "result": 0.6}, {"measurement": "The level of expressed mRNA in the presence of chemical substance/The level of expressed mRNA in the absence of chemical substance", "setting": "yeast gene YEL039C", "result": 1.2}, {"measurement": "The level of expressed mRNA in the presence of chemical substance/The level of expressed mRNA in the absence of chemical substance", "setting": "yeast gene YER178W", "result": 1.3}, {"measurement": "The level of expressed mRNA in the presence of chemical substance/The level of expressed mRNA in the absence of chemical substance", "setting": "yeast gene YFL016C", "result": 2.9}, {"measurement": "The level of expressed mRNA in the presence of chemical substance/The level of expressed mRNA in the absence of chemical substance", "setting": "yeast gene YGL018C", "result": 1.4}, {"measurement": "The level of expressed mRNA in the presence of chemical substance/The level of expressed mRNA in the absence of chemical substance", "setting": "yeast gene YGL187C", "result": 0.6}, {"measurement": "The level of expressed mRNA in the presence of chemical substance/The level of expressed mRNA in the absence of chemical substance", "setting": "yeast gene YGL191W", "result": 1.3}, {"measurement": "The level of expressed mRNA in the presence of chemical substance/The level of expressed mRNA in the absence of chemical substance", "setting": "yeast gene YGR008C", "result": 2.4}, {"measurement": "The level of expressed mRNA in the presence of chemical substance/The level of expressed mRNA in the absence of chemical substance", "setting": "yeast gene YGR028W", "result": 2.0}, {"measurement": "The level of expressed mRNA in the presence of chemical substance/The level of expressed mRNA in the absence of chemical substance", "setting": "yeast gene YGR062C", "result": 1.4}, {"measurement": "The level of expressed mRNA in the presence of chemical substance/The level of expressed mRNA in the absence of chemical substance", "setting": "yeast gene YGR076C", "result": 1.8}, {"measurement": "The level of expressed mRNA in the presence of chemical substance/The level of expressed mRNA in the absence of chemical substance", "setting": "yeast gene YGR082W", "result": 0.9}, {"measurement": "The level of expressed mRNA in the presence of chemical substance/The level of expressed mRNA in the absence of chemical substance", "setting": "yeast gene YGR174C", "result": 0.7}, {"measurement": "The level of expressed mRNA in the presence of chemical substance/The level of expressed mRNA in the absence of chemical substance", "setting": "yeast gene YGR244C", "result": 1.1}, {"measurement": "The level of expressed mRNA in the presence of chemical substance/The level of expressed mRNA in the absence of chemical substance", "setting": "yeast gene YHR008C", "result": 2.4}, {"measurement": "The level of expressed mRNA in the presence of chemical substance/The level of expressed mRNA in the absence of chemical substance", "setting": "yeast gene YIL155C", "result": 2.9}, {"measurement": "The level of expressed mRNA in the presence of chemical substance/The level of expressed mRNA in the absence of chemical substance", "setting": "yeast gene YJL096W", "result": 1.4}, {"measurement": "The level of expressed mRNA in the presence of chemical substance/The level of expressed mRNA in the absence of chemical substance", "setting": "yeast gene YJL102W", "result": 2.2}, {"measurement": "The level of expressed mRNA in the presence of chemical substance/The level of expressed mRNA in the absence of chemical substance", "setting": "yeast gene YJL133W", "result": 1.4}, {"measurement": "The level of expressed mRNA in the presence of chemical substance/The level of expressed mRNA in the absence of chemical substance", "setting": "yeast gene YJL166W", "result": 1.2}, {"measurement": "The level of expressed mRNA in the presence of chemical substance/The level of expressed mRNA in the absence of chemical substance", "setting": "yeast gene YJL180C", "result": 1.4}, {"measurement": "The level of expressed mRNA in the presence of chemical substance/The level of expressed mRNA in the absence of chemical substance", "setting": "yeast gene YJR045C", "result": 3.0}, {"measurement": "The level of expressed mRNA in the presence of chemical substance/The level of expressed mRNA in the absence of chemical substance", "setting": "yeast gene YJR077C", "result": 0.7}]}]}
